Assay results from PMC11706957 (Scientific Reports, 2025).
Where “and” joins values, the source holds several entries; their conditions need not be identical. Identical values can stand only once.

How the values were obtained:
DYRK1B [1] = biological target: T1, DYRK1B (Homo sapiens, UniProt Q9Y463); parameters: method as in Dirice et al. 2016; conditions: reference activity value, ref Dirice et al. 2016; cited from earlier work
T1 construct: purchased ThermoFisher Scientific

DYRK1B [2] = biological target: T1, DYRK1B; experiment: Lantha (TR-FRET) kinase binding assay
Experimental: Kinase binding activity was performed as described in[23]. Briefly, a 12-points dilution series of the compounds was prepared in DMSO and further diluted 1:33 in assay buffer A (50 mM HEPES (Sigma-Aldrich) pH 7.5, 10 mM MgCl2 (Sigma-Aldrich) 1 mM EGTA (Sigma-Aldrich) and 0.01% BRIJ-35 (ThermoFisher Scientific, Waltham, MA, USA). The GST tagged kinases, antibodies and tracer were purchased from ThermoFisher Scientific. DYRK1A and DYRK1B were each mixed with rabbit anti GST Europium tagged antibody in assay buffer A at concentrations of 15 nM kinase and 6 nM antibodies. Tracer 236 was diluted to 90 nM (DYRK1A) or 30 nM (DYRK1B) in assay buffer A. Finally, the kinase-antibody solution, compound solution and tracer solution were mixed together 1:1:1 (5µL each) in white, non-binding, round bottom 384 well microplates (Corning Inc, Kennebunk, ME, USA) mixed at 1000 rpm for 1 min and incubated in the dark at RT in humid atmosphere for 1 h. Fluorescence measurements were taken using a EnVision 2104 Multilabel reader (PerkinElmer, Shelton, CT, USA), excitation wavelength was set to 340 nm and emission was read at both 615 nm (8.5 nm bandwidth) and 665 nm (7.5 nm bandwidth) over 200ms with a 100ms delay between excitation and emission measurements. Emission ratio signals (EM) were calculated as the ratio between the 665 nm signal and the 615 nm signal. […]

RIN-M5F cells [3] = experiment: Caspase 3/7 activity (Caspase-Glo); assay type: cell-based, rat
Experimental: (§1) Rat beta cells RIN-M5F (purchased from ATCC, Manassas, VA, USA, product code ATCC-CRL-11605, passage number below 40 for all experiments presented in this manuscript) were cultured in RPMI-1640 (cat# R5886, Sigma-Aldrich, Saint Louis, MO, USA) supplemented with 10% FBS (Biowest, Nauillé, France), 2 mM L-glutamine (Biowest), 1 mM sodium pyruvate (Merck, Darmstadt, Germany) and 1x Penicillin-Streptomycin (Sigma-Aldrich) according to manufacturer’s instructions. Cells were seeded 3 days before the start of each experiment to allow full attachment. In experiments analysing the effects of cytokines, cells were treated with 20 ng/ml human IL-1β and 20 ng/ml rat IFNγ (Peprotech, Rocky Hill, NJ, USA) for a given time as indicated. Mycoplasma was tested as negative using MycoAlert® Mycoplasma Kit (Lonza, Basel, Switzerland).
RIN-M5F cells were cultured in 96-well plates, 2 × 10^4 cells/well. […] Caspase 3/7 activity was measured by Caspase-Glo (Promega) according to the manufacturer’s instructions. Each experiment was performed in triplicates.

DYRK3 = biological target: T2, DYRK3 (Homo sapiens, UniProt O43781); experiment: Kinase activity assay (33P-ATP radioactive filter binding); assay type: biochemical; conditions: duplicate 10-point concentration curve, mean ± SD
T2 sequence (O43781 1-588): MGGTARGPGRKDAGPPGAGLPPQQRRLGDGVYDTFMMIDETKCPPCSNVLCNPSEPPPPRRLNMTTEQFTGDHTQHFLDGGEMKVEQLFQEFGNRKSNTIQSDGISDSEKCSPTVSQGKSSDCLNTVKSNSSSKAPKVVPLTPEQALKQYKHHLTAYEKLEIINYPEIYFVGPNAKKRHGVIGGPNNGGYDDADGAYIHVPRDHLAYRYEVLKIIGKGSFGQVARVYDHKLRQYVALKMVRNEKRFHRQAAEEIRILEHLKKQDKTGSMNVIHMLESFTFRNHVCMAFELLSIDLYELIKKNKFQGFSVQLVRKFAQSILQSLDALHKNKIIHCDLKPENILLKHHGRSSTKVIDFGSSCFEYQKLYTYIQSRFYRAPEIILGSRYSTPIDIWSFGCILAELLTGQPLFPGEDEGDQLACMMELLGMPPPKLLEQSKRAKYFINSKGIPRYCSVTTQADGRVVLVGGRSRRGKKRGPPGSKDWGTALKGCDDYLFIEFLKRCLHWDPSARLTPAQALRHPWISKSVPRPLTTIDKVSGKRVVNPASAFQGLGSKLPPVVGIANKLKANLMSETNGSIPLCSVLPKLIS
Experimental: (§2) Each kinase was assayed using a duplicate 10-point concentration curve.

DYRK2 = biological target: T3, DYRK2 (Homo sapiens, UniProt Q92630); experiment: as above; assay type: biochemical; conditions: duplicate 10-point concentration curve, mean ± SD
T3 sequence (Q92630 1-601): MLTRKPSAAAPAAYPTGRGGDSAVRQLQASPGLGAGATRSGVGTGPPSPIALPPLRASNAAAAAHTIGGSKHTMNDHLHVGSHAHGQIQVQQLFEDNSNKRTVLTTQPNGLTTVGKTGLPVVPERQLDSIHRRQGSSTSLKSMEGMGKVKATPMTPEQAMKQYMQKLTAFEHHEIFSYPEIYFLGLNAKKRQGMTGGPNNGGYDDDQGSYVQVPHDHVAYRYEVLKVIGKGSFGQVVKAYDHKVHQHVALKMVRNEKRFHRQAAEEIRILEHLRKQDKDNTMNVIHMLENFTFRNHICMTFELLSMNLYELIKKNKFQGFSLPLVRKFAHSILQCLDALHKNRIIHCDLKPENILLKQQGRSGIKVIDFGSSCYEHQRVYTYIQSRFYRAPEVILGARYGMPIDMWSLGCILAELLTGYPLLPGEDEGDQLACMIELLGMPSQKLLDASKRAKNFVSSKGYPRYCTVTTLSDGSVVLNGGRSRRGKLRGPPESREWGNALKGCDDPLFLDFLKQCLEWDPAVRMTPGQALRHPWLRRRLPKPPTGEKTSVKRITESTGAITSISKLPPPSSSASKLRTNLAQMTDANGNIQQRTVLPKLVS
Experimental: as §2

[4] = test system: phospho-dyrk1a/b (Tyr321, Tyr273); experiment: Western blot of phosphorylated DYRK1A/B; assay type: cell-based, rat; conditions: 48 h, no cytokines
Experimental: (§3) RIN-M5F cells were seeded in 6-well plates, 6 × 10^5 cells/well. […] After centrifugation (16.9 RCF, 15 min at 4 °C) the samples were directly diluted in NuPAGE™ LDS Sample Buffer (4X, Invitrogen) supplemented with NuPAGE™ Sample Reducing Agent (10X, Invitrogen), boiled at 95 °C for 5min and loaded on gel (NuPAGE™ 4–12%, Bis-Tris, Invitrogen). Protein transfer to PVDF membrane was performed by the iBlot™ dry blotting system (Invitrogen) according to manufacturer’s instructions. The membrane was blocked using SuperBlock™ Blocking Buffer (Thermo Fisher Scientific) and subsequently cut in half around 60 kDA, the top half was incubated with primary antibodies for phospho-dyrk1a/b (Tyr321, Tyr273) (1:500, Invitrogen, ref: PA5-64574), while the bottom half was incubated with phospho-p27^kip1 (Ser10) (1:200, Invitrogen, ref:34-6300) over night at 4 °C. After washing, the membrane was incubated with Alexa488-conjugated secondary antibody (1:5000, goat anti-rabbit, Invitrogen) for 2 h and imaged with a PharoxFX imager (Bio-Rad, Hercules, CA, USA). […] Protein quantification was performed with ImageJ (National Institutes of Health, Bethesda MD, USA), using the gel analysis tool to get the integrated pixel intensity for each band.

RIN-M5F cells [5] = experiment: EdU incorporation (flow cytometry); assay type: cell-based, rat; conditions: for Average increase of EdU + labelling: versus untreated
Experimental: as §1
RIN-M5F cells were seeded into 6 well plates, 6 × 10^5 cells per well. […] Subsequently, the cells were stained with 10 µM Click-iT EdU (Invitrogen, Waltham, MA, USA) for 2 h, and analysed by flow cytometry (CytoFLEX, Beckman Coulter, Brea, CA, USA) according to the manufacturer’s instructions. EdU incorporation was analysed using the CytExpert software.

RIN-M5F cells [6] = experiment: Cell viability (MTS, CellTiter 96 AQueous One) in cytokine-treated cells; assay type: cell-based, rat
Experimental: as §1
RIN-M5F cells were cultured in 96-well plates, 2 × 10^4 cells/well. […] Control wells with RPMI-1640 alone or supplemented with DMSO (Sigma-Aldrich, final concentration 10%) were used to estimate absorbance at 100% or 0% viability, respectively. […] The cells were thereafter incubated for an additional 72 h, and cell viability was measured by CellTiter 96®AQueous One Solution Assay (Promega, Madison, WI, USA) according to the manufacturer’s instructions. Absorbance at 490 nm was measured using a Spark® multimode microplate reader (Tecan, Männedorf, Switzerland). […]

RIN-M5F cells [7] = experiment: Cell cycle distribution (PI staining, flow cytometry); assay type: cell-based, rat
Experimental: as §1
RIN-M5F cells were seeded in 6-well plates, 6 × 10^5 cells/well. […] After stimulation, the cells were washed with phosphate buffered saline (PBS) and trypsinated for 5 min at 37 °C, and fixed in ice-cold ethanol (70%) at 4 °C until analysis. The cells were stained by FxCycle™ PI/RNase Staining Solution kit (Invitrogen) according to manufacturer’s instructions and analysed by flow cytometry (CytoFLEX, Beckman Coulter). The percentages of cells in G1, S1 and G2/M was determined using the CytExpert software.

phospho-p27^kip1 (Ser10) = experiment: Western blot of phosphorylated p27KIP; assay type: cell-based, rat; conditions: 48 h, no cytokines
Experimental: as §3

HepG2 cells = experiment: EdU incorporation in HepG2 cells; assay type: cell-based; conditions: 10 µM BfC versus untreated
From the text: Supplementary Figure S2. Redocking of harmine in DYRK1A. The interactions between the compounds and the kinase hinge are identical (red circles) in both calculated and experimental model. […]
compounds are shown as cartoon, with blue for nitrogen atoms, white for hydrogen, red for oxygen, purple for iodine and either orange (experimental) or green (docked) for carbon atoms. The protein active site is shown as a grey surface and important residues are shown as wire, dashed line represent […]
µM). Open bars: EdU negative cells. Closed bars: EdU positive cells. Closed circles: Untreated cells. […]

48 cell lines = test system: 48 cell lines; parameters: method as in PMID 31647655; conditions: cited from earlier work
[8] = 20 µM, cells treated with cytokines

T1 sequence (Q9Y463 whole entry): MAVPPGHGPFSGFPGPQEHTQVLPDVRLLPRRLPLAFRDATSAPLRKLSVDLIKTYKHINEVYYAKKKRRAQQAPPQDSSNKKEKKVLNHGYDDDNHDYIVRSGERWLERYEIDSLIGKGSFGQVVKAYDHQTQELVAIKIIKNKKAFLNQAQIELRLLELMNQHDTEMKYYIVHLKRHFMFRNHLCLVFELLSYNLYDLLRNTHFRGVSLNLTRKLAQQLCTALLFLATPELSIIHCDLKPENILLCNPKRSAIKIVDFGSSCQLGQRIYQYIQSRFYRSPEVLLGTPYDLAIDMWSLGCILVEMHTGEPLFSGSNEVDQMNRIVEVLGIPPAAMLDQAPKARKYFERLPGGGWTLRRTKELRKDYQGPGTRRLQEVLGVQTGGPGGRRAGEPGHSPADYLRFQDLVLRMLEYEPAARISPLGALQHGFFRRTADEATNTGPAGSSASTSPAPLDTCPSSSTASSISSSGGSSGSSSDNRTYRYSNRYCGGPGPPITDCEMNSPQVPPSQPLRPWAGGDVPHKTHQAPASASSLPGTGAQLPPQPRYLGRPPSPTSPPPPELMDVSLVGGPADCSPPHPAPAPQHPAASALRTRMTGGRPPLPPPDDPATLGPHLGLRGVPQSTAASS

In the case of `Nc1ncnc2c1c(I)cn2[C@@H]1O[C@H](CO)[C@@H](O)[C@H]1O` [5IT, reference compound], the IC50 (DYRK1B [1]) is given as 10 nM and the Kd (DYRK1B [2]; lanthaScreen, 95% confidence interval in bracket) is given as 2.4 nM.
With `COc1cc2c(-c3cnc(-c4ccc[nH]4)o3)c[nH]c2cc1Br` [BfC, breitfussin C] the “Caspase 3/7 activity compared to control” value (RIN-M5F cells [3]; 10 µM pretreatment 24 h before cytokines, cytokines alone 199%) was 210 ± 15%, the “Caspase 3/7 activity compared to control” value (RIN-M5F cells [3]; 10 µM, 48 h, without cytokines) was 127 ± 2% and the “Caspase 3/7 activity compared to control” value (RIN-M5F cells [3]; 20 µM pretreatment 24 h before cytokines, cytokines alone 199%) was 241 ± 20%. The “Caspase 3/7 activity compared to control” value (RIN-M5F cells [3]; 20 µM, 48 h, without cytokines) was 186 ± 19%, the IC50 (DYRK3) was 4400 ± 800 nM and the IC50 (DYRK2) was 1400 ± 500 nM. For the same molecule, the “Decrease of expression of p-DYRK1A/B compared to control” value ([4]; 10 µM) was “approximately 50%”, the “Decrease of expression of p-DYRK1A/B compared to control” value ([4]; 20 µM) was roughly 62% and the “EdU + labelling rate” value (RIN-M5F cells [5]; 10 µM pretreatment, cytokine treated cells, cytokines alone 7.7 ± 0.8%) was 8.8 ± 0.8%. For the same molecule, the “Average increase of EdU + labelling” value (RIN-M5F cells [5]; 10 µM, without cytokines) was 12.5%, the “EdU + labelling rate” value (RIN-M5F cells [5]; 10 µM, without cytokines, untreated 15.2 ± […]) was 17.1 ± 0.9% and the “EdU + labelling rate” value (RIN-M5F cells [5]; 20 µM pretreatment, cytokine treated cells, cytokines alone 7.7 ± 0.8%) was 11.0 ± 1.1%. The “Average increase of EdU + labelling” value (RIN-M5F cells [5]; 20 µM, without cytokines) was 21.1%, the “EdU + labelling rate” value (RIN-M5F cells [5]; 20 µM, without cytokines, untreated 15.2 ± […]) was 18.4 ± 1.5% and the “Protective effect against cytokine-induced cell death at higher concentrations” value (RIN-M5F cells [6]; concentrations above 10–20 µM (up to 40 µM), with cytokines) was “lost”. For the same molecule, the “Concentration range of effective protection against cytokine-induced cell death” value (RIN-M5F cells [6]; dose-response 1.25-40 µM with cytokines) was 10 to 20 µM, the “Change of cells in G0/G1 phase” value (RIN-M5F cells [7]; 10 µM, without cytokines) was “significantly decreased” and the “Change of cells in S and G2/M phase” value (RIN-M5F cells [7]; 10 µM, without cytokines) was “increased”. For the same molecule, the “Number of cells in G0/G1” value (RIN-M5F cells [7]; 20 µM, 48 h, without cytokines, control 76.9 ± 0.6%) was 66.6 ± 1.3%, the “Change of cells in S and G2/M phase” value (RIN-M5F cells [7]; [8]) was “increased” and the “Change of number of cells in G0/G1” value (RIN-M5F cells [7]; [8]) was “significantly decreased”. The “Change of cells in S and G2/M phase” value (RIN-M5F cells [7]; 20 µM, without cytokines) was “increased”, the Kd (DYRK1B [2]; TR-FRET, approximate because of compound autofluorescence) was ~9000 nM and 9000 nM and the “Decrease of expression of p-p27^KIP compared to control” value (phospho-p27^kip1 (Ser10); 10 µM) was 23%. The “Decrease of expression of p-p27^KIP compared to control” value (phospho-p27^kip1 (Ser10); 20 µM) was 42%, the “EdU incorporation in HepG2 cells” value (HepG2 cells) was “decreased” and the “Concentration at which cytotoxic to 48 cell lines” value (48 cell lines) was no more than 10 µM.
